Data taken from ChEMBL document CHEMBL1177848, “Synthesis of novel 6,6a,7,8-tetrahydro-5H-naphtho[1,2-e]pyrimido[4,5-b][1,4]diazepines under microwave irradiation as potential anti-tumor agents” (2010).
Active and inactive are the calls of the source. The rule behind the calls is not given here.

Assays:
HOP-62 [1] = test: Growth inhibition of human HOP62 cells at 1 uM after 48 hrs by sulforhodamine B assay; format: functional, cell-based
PC-3 = test: Growth inhibition of human PC3 cells at 1 uM after 48 hrs by sulforhodamine B assay; format: functional, cell-based
MDA-MB-231 = test: Growth inhibition of human MDA-MB-231 cells at 1 uM after 48 hrs by sulforhodamine B assay; format: functional, cell-based
UACC-257 = test: Growth inhibition of human UACC257 cells at 1 uM after 48 hrs by sulforhodamine B assay; format: functional, cell-based
SF-539 = test: Growth inhibition of human SF539 cells after 48 hrs by sulforhodamine B assay; format: functional; details: SF-539, 48 h; for CC50: read-out: LC50 (the source's name)
SW-620 = test: Growth inhibition of human SW620 cells at 1 uM after 48 hrs by sulforhodamine B assay; format: functional, cell-based
Hs-578T = test: Growth inhibition of human Hs 578T cells after 48 hrs by sulforhodamine B assay; format: functional
HL-60 = test: Growth inhibition of human HL-60(TB) cells after 48 hrs by sulforhodamine B assay; format: functional; details: HL-60, 48 h
[2] = Growth inhibition of human SF530 cells after 48 hrs by sulforhodamine B assay; format: functional; details: SF530, 48 h
A549 = test: Growth inhibition of human A549 cells after 48 hrs by sulforhodamine B assay; format: functional; details: A549, 48 h
MOLT-4 = test: Growth inhibition of human MOLT4 cells after 48 hrs by sulforhodamine B assay; format: functional; details: MOLT-4, 48 h
SNB-75 = test: Growth inhibition of human SNB75 cells after 48 hrs by sulforhodamine B assay; format: functional; details: SNB-75, 48 h
HOP-62 [3] = test: Growth inhibition of human HOP62 cells after 48 hrs by sulforhodamine B assay; format: functional; details: HOP-62, 48 h
OVCAR-8 = test: Growth inhibition of human OVCAR8 cells after 48 hrs by sulforhodamine B assay; format: functional; details: OVCAR-8, 48 h
M14 = test: Growth inhibition of human M14 cells after 48 hrs by sulforhodamine B assay; format: functional; details: M14, 48 h
SK-MEL-2 = test: Growth inhibition of human SK-MEL-2 cells after 48 hrs by sulforhodamine B assay; format: functional; details: SK-MEL-2, 48 h
786-0 = test: Growth inhibition of human 786-0 cells after 48 hrs by sulforhodamine B assay; format: functional; details: 786-0, 48 h
SF-268 = test: Growth inhibition of human SF268 cells after 48 hrs by sulforhodamine B assay; format: functional; details: SF-268, 48 h
K562 = test: Growth inhibition of human K562 cells after 48 hrs by sulforhodamine B assay; format: functional; details: K562, 48 h
SK-MEL-28 = test: Growth inhibition of human SK-MEL-28 cells after 48 hrs by sulforhodamine B assay; format: functional; details: SK-MEL-28, 48 h
CCRF-CEM = test: Growth inhibition of human CCRF-CEM cells after 48 hrs by sulforhodamine B assay; format: functional
HCC 2998 = test: Growth inhibition of human HCC2998 cells after 48 hrs by sulforhodamine B assay; format: functional; details: HCC 2998, 48 h
DU-145 = test: Growth inhibition of human DU145 cells after 48 hrs by sulforhodamine B assay; format: functional; details: DU-145, 48 h
NCI-H322M = test: Growth inhibition of human […] cells after 48 hrs by sulforhodamine B assay; format: functional
[4] = read-out: LC50 (the source's name)

## Nc1nc(N)c2c(n1)NC(c1ccc(Cl)cc1)C1CCc3ccccc3C1=N2 (configuration not stated)
HOP-62 [1]
  growth inhibition (GI): inactive
PC-3
  growth inhibition (GI): inactive
MDA-MB-231
  growth inhibition (GI): inactive
UACC-257
  growth inhibition (GI): inactive
SF-539
  GI50: 6.17 µM
  CC50: 44.3 µM
SW-620
  growth inhibition (GI): inactive

## Nc1nc(N)c2c(n1)NC(c1ccccc1)C1CCc3ccccc3C1=N2 (configuration not stated)
Hs-578T
  GI50: 5.85 µM
Hs-578T; [4]
  CC50: > 100 µM
HOP-62 [1]
  growth inhibition (GI): inactive
PC-3
  growth inhibition (GI): inactive
HL-60
  GI50: 2.37 µM
HL-60; [4]
  CC50: > 100 µM
[2]
  GI50: 5.81 µM
[2]; [4]
  CC50: 43.7 µM
MDA-MB-231
  growth inhibition (GI): inactive
UACC-257
  growth inhibition (GI): inactive
A549
  GI50: 7.11 µM
A549; [4]
  CC50: 82.2 µM
MOLT-4
  GI50: 2.7 µM
MOLT-4; [4]
  CC50: > 100 µM
SNB-75
  GI50: 7.95 µM
SNB-75; [4]
  CC50: 45.6 µM
HOP-62 [3]
  GI50: 7.87 µM
  LC50 (concentration killing 50% of cells): 49.7 µM
OVCAR-8
  GI50: 4.71 µM
  LC50 (concentration killing 50% of cells): > 100 µM
M14
  GI50: 4.88 µM
M14; [4]
  CC50: 44.2 µM
SK-MEL-2
  GI50: 3.48 µM
  LC50: 43.6 µM
786-0
  GI50: 5.99 µM
  LC50 (50% lethal concentration): 45.7 µM
SF-268
  GI50: 6.96 µM
SF-268; [4]
  CC50: 45.7 µM
K562
  GI50: 3.42 µM
K562; [4]
  CC50: > 100 µM
SK-MEL-28
  GI50: 7.72 µM
SK-MEL-28; [4]
  CC50: 45.1 µM
CCRF-CEM
  GI50: 4.47 µM
CCRF-CEM; [4]
  CC50: > 100 µM
HCC 2998
  GI50: 3.82 µM
  LC50 (concentration killing 50% of cells): 41.2 µM
DU-145
  GI50: 4.38 µM
  LC50 (50% lethal concentration): 42.1 µM
SW-620
  growth inhibition (GI): inactive

## Nc1nc(N)c2c(n1)NC(c1ccc(F)cc1)C1CCc3ccccc3C1=N2 (configuration not stated)
HOP-62 [1]
  growth inhibition (GI): inactive
PC-3
  growth inhibition (GI): inactive
MDA-MB-231
  growth inhibition (GI): inactive
UACC-257
  growth inhibition (GI): inactive
HOP-62 [3]
  GI50: 6 µM
  LC50 (concentration killing 50% of cells): 51.6 µM
OVCAR-8
  GI50: 8.07 µM
  LC50 (concentration killing 50% of cells): 80.7 µM
SK-MEL-2
  GI50: 5.73 µM
  LC50: 50.2 µM
786-0
  GI50: 6.9 µM
  LC50 (50% lethal concentration): 47.8 µM
SF-539
  GI50: 1.71 µM
  CC50: 32 µM
HCC 2998
  GI50: 2.44 µM
  LC50 (concentration killing 50% of cells): 24.3 µM
DU-145
  GI50: 7.45 µM
  LC50 (50% lethal concentration): 44.5 µM
SW-620
  growth inhibition (GI): inactive
NCI-H322M
  GI50: 9.63 µM
NCI-H322M; [4]
  CC50: 48 µM
